Assay results as given in patent publication US20250161319A1, “USE OF HPK1 INHIBITOR IN TREATMENT OF INTERFERON-RELATED DISEASES” (priority 2022, published 2025).

How the values were obtained:
TNIK [1] = target: T1, TNIK (Homo sapiens (Human), UniProt Q9UKE5); test: In vitro enzyme activity, ADP-Glo method (Example 3); assay type: biochemical; settings: recombinant protein, read-out: TNIK inhibiting activity level (IC50)
Protocol: (§1) ADP-Glo™ Kinase Assay is a luminescent ADP assay that provides a versatile, homogeneous, high-throughput screening method to measure kinase activity by quantifying the amount of ADP produced during the kinase reaction. The assay was performed in two steps; first, after the kinase reaction, an equal volume of ADP-Glo™ Reagent was added to quench the kinase reaction and consume the remaining ATP. Second, the Kinase Assay Reagent was added to concurrently convert ADP to ATP and allow measurement of newly synthesized ATP using the luciferase/luciferin reaction. The light produced was measured using a photometer. Luminescence can be correlated with ADP concentration by using an ATP to ADP conversion curve. […] Meanwhile, better selectivity was shown on kinases with closer homology such as GCK/TNIK/PDK1.
Target sequence in this assay (Q9UKE5 whole entry, species assumed): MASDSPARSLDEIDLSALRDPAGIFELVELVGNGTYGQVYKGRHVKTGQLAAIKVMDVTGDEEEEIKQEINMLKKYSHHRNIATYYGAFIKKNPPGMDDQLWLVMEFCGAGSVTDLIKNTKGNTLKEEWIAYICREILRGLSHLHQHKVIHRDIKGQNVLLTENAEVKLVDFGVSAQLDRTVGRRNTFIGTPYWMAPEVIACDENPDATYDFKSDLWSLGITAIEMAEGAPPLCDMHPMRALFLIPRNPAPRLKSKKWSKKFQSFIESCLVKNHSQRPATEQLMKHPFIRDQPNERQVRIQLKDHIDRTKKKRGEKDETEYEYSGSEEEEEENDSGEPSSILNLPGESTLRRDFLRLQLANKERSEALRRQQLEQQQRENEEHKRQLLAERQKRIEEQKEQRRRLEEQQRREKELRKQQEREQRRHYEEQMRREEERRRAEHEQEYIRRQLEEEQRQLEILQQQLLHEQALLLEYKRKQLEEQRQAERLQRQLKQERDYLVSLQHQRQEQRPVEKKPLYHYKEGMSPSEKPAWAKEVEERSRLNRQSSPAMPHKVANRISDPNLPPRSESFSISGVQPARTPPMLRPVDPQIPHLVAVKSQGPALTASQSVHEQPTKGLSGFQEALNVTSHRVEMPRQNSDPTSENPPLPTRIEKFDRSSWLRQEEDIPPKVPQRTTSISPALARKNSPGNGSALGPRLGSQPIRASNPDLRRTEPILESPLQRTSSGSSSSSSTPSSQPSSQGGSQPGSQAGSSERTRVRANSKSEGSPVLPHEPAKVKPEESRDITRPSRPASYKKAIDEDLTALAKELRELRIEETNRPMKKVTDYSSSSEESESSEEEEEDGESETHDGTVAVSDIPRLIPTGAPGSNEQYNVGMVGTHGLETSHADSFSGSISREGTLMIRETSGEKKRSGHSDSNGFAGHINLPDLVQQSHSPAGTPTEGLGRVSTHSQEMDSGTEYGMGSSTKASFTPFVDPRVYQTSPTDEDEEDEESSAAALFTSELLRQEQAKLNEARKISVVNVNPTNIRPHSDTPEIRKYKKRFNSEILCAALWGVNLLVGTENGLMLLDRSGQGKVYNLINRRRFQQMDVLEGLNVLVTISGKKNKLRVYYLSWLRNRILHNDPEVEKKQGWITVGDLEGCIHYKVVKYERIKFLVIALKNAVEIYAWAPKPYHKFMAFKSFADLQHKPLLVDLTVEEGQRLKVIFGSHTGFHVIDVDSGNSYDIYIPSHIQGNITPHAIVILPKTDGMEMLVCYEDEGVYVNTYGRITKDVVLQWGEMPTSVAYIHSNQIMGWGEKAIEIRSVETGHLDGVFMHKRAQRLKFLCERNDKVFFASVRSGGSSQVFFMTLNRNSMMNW

PDK1 [2] = target: T2, PDK1 (Homo sapiens (Human), UniProt O15530); test: as above; assay type: biochemical; settings: recombinant protein, read-out: PDK1 inhibiting activity level (IC50)
T2 sequence (O15530 whole entry): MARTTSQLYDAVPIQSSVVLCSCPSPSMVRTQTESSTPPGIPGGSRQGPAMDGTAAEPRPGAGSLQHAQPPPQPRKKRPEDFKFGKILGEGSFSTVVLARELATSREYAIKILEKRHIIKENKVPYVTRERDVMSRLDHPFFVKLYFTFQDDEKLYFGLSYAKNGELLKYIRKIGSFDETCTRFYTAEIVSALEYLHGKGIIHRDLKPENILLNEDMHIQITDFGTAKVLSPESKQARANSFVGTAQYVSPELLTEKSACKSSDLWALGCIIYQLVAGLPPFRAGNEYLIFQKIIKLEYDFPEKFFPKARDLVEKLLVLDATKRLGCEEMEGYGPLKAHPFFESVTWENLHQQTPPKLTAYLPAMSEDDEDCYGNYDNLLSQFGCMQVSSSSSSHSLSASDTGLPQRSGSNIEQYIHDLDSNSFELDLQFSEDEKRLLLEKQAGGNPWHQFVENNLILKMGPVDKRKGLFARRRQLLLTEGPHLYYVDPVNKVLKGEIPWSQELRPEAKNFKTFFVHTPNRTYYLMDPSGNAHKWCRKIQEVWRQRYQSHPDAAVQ
Protocol: as §1

GCK [3] = target: T3, GCK (Homo sapiens (Human), UniProt Q12851); test: as above; assay type: biochemical; settings: recombinant protein, read-out: GCK inhibiting activity level (IC50)
T3 sequence (Q12851 whole entry): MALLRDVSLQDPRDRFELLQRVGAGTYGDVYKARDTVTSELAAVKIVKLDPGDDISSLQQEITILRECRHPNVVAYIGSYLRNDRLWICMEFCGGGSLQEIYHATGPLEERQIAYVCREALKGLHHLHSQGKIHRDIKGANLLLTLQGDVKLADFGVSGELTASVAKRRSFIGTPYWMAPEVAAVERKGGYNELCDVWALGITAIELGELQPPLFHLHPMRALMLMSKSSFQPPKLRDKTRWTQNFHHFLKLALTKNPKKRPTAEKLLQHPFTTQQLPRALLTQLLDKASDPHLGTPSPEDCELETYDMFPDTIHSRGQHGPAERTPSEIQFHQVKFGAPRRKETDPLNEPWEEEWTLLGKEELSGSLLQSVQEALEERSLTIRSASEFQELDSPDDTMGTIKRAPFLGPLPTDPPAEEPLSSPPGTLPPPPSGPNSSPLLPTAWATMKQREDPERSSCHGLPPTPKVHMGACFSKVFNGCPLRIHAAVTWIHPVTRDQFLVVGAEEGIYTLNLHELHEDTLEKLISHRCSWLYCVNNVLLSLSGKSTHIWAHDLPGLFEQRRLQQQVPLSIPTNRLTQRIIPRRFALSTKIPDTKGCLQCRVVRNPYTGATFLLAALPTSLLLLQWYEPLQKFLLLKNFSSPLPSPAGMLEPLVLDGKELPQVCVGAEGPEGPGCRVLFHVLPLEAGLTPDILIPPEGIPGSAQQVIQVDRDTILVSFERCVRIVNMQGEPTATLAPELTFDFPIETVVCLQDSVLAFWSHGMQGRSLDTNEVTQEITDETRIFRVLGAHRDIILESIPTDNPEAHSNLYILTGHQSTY
Protocol: as §1

HPK1 [4] = target: T4, HPK1 (Homo sapiens (Human), UniProt Q92918); test: as above; assay type: biochemical; settings: recombinant protein, read-out: HPK1 inhibiting activity level (IC50)
T4 sequence (Q92918 whole entry): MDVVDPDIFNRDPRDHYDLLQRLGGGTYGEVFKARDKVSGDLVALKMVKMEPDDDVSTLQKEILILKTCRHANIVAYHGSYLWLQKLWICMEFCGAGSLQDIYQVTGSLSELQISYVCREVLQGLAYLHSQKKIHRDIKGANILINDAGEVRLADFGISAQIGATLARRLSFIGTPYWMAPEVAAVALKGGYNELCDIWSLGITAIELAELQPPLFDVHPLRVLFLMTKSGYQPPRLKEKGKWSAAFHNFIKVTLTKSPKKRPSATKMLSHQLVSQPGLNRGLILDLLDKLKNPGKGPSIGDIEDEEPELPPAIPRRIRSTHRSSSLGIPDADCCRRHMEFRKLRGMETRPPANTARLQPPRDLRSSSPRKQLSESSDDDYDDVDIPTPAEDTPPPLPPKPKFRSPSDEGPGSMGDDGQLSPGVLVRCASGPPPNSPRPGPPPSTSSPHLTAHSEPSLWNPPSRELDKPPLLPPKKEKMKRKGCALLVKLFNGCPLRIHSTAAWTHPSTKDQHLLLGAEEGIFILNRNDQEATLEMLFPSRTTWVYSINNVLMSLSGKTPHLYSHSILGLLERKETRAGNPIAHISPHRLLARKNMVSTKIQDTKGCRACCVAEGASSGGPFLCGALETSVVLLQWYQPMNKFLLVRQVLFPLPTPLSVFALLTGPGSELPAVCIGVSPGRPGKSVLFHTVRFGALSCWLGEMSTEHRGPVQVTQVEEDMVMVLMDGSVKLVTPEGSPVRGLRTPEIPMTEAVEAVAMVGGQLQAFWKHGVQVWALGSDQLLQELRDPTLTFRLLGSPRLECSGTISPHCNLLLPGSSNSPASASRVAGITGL
Protocol: as §1

[5] = Oral maximum tolerated dose / oral acute toxicity test in mice; assay type: in vivo; settings: for Death, Female mice / Death, Male mice: P.O.
Source text: The inventors tested representative compounds for oral maximum tolerated dose in mice.

[6] = system: Feline Infectious Peritonitis; test: Animal clinical trial in cats with Feline Infectious Peritonitis; assay type: in vivo; settings: 20 days; for ALB/GLB, After treatment / Feline serum amyloid A (fSAA, mg/L), After treatment: 1.5 mg/kg twice a day; for body weight (kg), After treatment: injection 1.5 mg/kg twice a day
Source text: Therefore, the inventors hypothesized that HPK1 inhibitors might have therapeutic effects on Feline Infectious Peritonitis. To validate this hypothesis, the inventors conducted an animal clinical trial. Three animals were included in the experiment, all of them suffered from Feline Infectious Peritonitis, aged between 5-12 months, one was female and the other two were male (Table 4).

GCK [7] = target: T3, GCK; test: Inhibition of GCK kinase activity in vitro (ADP-Glo); assay type: biochemical
Protocol: (§2) The starting concentration for all tested compounds was 10 μM, and diluted in three-fold concentration gradient for a total of 10 concentration points in duplicate. […] A mixture of 2-fold concentration of MBP and ATP was prepare in the kinase buffer, and 2.5 μL of prepared mixture of 2-fold concentration of MBP and ATP was added into the above reaction system for the reaction, centrifuged at 1000 g for 30 s, and then incubated at room temperature for 1 h. 5 μL of ADP-Glo reagent was added into the reaction system, and incubated at room temperature for 40 min. 10 μL of kinase detection reagent was added and incubated at room temperature for 40 min.

HPK1 [8] = target: T4, HPK1; test: Inhibition of HPK1 kinase activity in vitro (ADP-Glo), compounds of Formula I-2; assay type: biochemical
Protocol: The starting concentration for all tested compounds was 10 μM, and diluted in three-fold concentration gradient for a total of 10 concentration points in duplicate. Before the experiment, 50 μM DTT and the enzymatic reaction system buffer were prepared. […] A mixture of 2-fold concentration of MBP and ATP was prepare in the kinase buffer, and 2.5 μL of prepared mixture of 2-fold concentration of MBP and ATP was added into the above reaction system for the reaction, centrifuged at 1000 g for 30 s, and then incubated at room temperature for 1 h. 5 μL of ADP-Glo reagent was added into the reaction system, and incubated at room temperature for 40 min. 10 μL of kinase detection reagent was added and incubated at room temperature for 40 min. […] In the above formula, empd refers to the tested compound, PC refers to the positive control, and VC refers to the negative control.

PDK1 [9] = target: T2, PDK1; test: Inhibition of PDK1 kinase activity in vitro (ADP-Glo); assay type: biochemical
Protocol: as §2

TNIK [10] = target: T1, TNIK; test: Inhibition of TNIK kinase activity in vitro (ADP-Glo); assay type: biochemical
Protocol: as §2
Target sequence in this assay (Q9UKE5 whole entry): as the sequence (Q9UKE5 whole entry, species assumed) above

IGFIR = IGFIR (Homo sapiens (Human), UniProt P08069); test: Kinase panel inhibition rate at 10 μM; assay type: biochemical
ZAP70 = ZAP70 (Homo sapiens (Human), UniProt P43403); test: Kinase panel inhibition rate at 10 μM; assay type: biochemical
p38-alpha = p38-alpha (Homo sapiens (Human), UniProt Q16539); test: Kinase panel inhibition rate at 10 μM; assay type: biochemical
LCK = LCK (Homo sapiens (Human), UniProt P06239); test: Kinase panel inhibition rate at 10 μM; assay type: biochemical
EGFR = EGFR (Homo sapiens (Human), UniProt P00533); test: Kinase panel inhibition rate at 10 μM; assay type: biochemical
CDK12 = CDK12 (Homo sapiens (Human), UniProt Q9NYV4); test: Kinase panel inhibition rate at 10 μM; assay type: biochemical
ATR = ATR (Homo sapiens (Human), UniProt Q13535); test: Kinase panel inhibition rate at 10 μM; assay type: biochemical
LYNB = LYNB (Homo sapiens (Human), UniProt P07948); test: Kinase panel inhibition rate at 10 μM; assay type: biochemical
AKT1 = AKT1 (Homo sapiens (Human), UniProt P31749); test: Kinase panel inhibition rate at 10 μM; assay type: biochemical
SYK = SYK (Homo sapiens (Human), UniProt P43405); test: Kinase panel inhibition rate at 10 μM; assay type: biochemical
[11] = Acute toxicity assay of DD02001A_trans in mice by gavage; assay type: in vivo; settings: single dose, observed 14 days
Protocol: Mice were given DD02001A_trans (2000, 1500, 1000, and 500 mg/kg) by gavage in a single dose, respectively, and the responses of the mice after administration and their deaths within two weeks were recorded. • 2.2.5.1 Animals: Kunming breed mice (purchased from Guangdong Provincial Laboratory Animal Centre, License No.: SCXK(GD) 2018-0002), 10 mice, half male and half female, weighing 18-22 g. The mice were kept for three days to adapt to the environment. […] Necropsy was carried out on the dead animals in time to record the lesions. If obvious changes are visible to naked eyes, pathological section should be made.

PI3Kα = PI3Kα (Homo sapiens (Human), UniProt P42336); test: Kinase panel inhibition rate at 10 μM; assay type: biochemical
ERK1.2 = test: Kinase panel inhibition rate at 10 μM; assay type: biochemical
[12] = Determination of pharmacokinetic parameters in SD rats; assay type: in vivo; settings: rat, plasma, oral; male SD rats; intravenously 2 mg/kg, gavage 10 mg/kg; read-out: Absolute oral bioavailability %
Protocol: The compounds to be tested were administered intravenously (2 mg/kg) and by gavage ([…]) to three male SD rats, respectively, and the blood concentration of the compounds to be tested in plasma was quantified by liquid chromatography tandem mass spectrometry ([…]), and the pharmacokinetic parameters were calculated to investigate the pharmacokinetic profiles of the compounds to be tested in the SD male rats. For the compounds to be tested, blood was taken at the time points of 0.25 h, 0.5 h, 1 h, 2 h, 4 h, 6 h, 8 h and 24 h after oral administration, and blood was taken at the time points of 0.083 h, 0.25 h, 0.5 h, 1 h, 2 h, 4 h, 6 h, 8 h and 24 h after intravenous administration. Subsequently, 50 μL of plasma sample was transferred to a 96-well plate and 250 μLACN (internal standard containing 260 ng/ml toluenesulfonylbutyramide) to precipitate proteins, and centrifuged at 4° C. and 4000 rpm for 20 min, 150 μL of the supernatant was transferred to a new 96-well plate and mixed with 150 μL of 0.1% FA/water, and then 5 μL of the resulting solution was loaded on LC-MS/MS for analysis.

JAK1 = JAK1 (Homo sapiens (Human), UniProt P23458); test: Kinase panel inhibition rate at 10 μM; assay type: biochemical
CDK4 = CDK4 (Homo sapiens (Human), UniProt P11802); test: Kinase panel inhibition rate at 10 μM; assay type: biochemical
HER2 = HER2 (Homo sapiens (Human), UniProt P04626); test: Kinase panel inhibition rate at 10 μM; assay type: biochemical
CDK7 = CDK7 (Homo sapiens (Human), UniProt P50613); test: Kinase panel inhibition rate at 10 μM; assay type: biochemical
MNK1/2 = test: Kinase panel inhibition rate at 10 μM; assay type: biochemical
ROS1 = ROS1 (Homo sapiens (Human), UniProt P08922); test: Kinase panel inhibition rate at 10 μM; assay type: biochemical
IKK-beta = IKK-beta (Homo sapiens (Human), UniProt O14920); test: Kinase panel inhibition rate at 10 μM; assay type: biochemical
CK1gamma1 = CK1gamma1 (Homo sapiens (Human), UniProt Q9HCP0); test: Kinase panel inhibition rate at 10 μM; assay type: biochemical
CK1gamma1, sequence (Q9HCP0 whole entry): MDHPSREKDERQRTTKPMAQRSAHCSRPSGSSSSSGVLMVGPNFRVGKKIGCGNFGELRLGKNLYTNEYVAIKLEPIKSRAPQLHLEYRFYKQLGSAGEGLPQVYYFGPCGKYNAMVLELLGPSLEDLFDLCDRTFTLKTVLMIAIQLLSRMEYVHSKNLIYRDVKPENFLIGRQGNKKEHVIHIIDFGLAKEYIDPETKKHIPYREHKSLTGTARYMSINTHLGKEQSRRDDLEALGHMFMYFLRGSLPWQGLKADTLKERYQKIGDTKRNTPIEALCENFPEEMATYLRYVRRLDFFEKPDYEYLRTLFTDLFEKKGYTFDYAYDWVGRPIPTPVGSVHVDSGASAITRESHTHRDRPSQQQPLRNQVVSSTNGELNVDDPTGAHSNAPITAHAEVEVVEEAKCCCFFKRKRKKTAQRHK

CSF1R = CSF1R (Homo sapiens (Human), UniProt P07333); test: Kinase panel inhibition rate at 10 μM; assay type: biochemical
CSF1R, sequence (P07333 20-972, species assumed): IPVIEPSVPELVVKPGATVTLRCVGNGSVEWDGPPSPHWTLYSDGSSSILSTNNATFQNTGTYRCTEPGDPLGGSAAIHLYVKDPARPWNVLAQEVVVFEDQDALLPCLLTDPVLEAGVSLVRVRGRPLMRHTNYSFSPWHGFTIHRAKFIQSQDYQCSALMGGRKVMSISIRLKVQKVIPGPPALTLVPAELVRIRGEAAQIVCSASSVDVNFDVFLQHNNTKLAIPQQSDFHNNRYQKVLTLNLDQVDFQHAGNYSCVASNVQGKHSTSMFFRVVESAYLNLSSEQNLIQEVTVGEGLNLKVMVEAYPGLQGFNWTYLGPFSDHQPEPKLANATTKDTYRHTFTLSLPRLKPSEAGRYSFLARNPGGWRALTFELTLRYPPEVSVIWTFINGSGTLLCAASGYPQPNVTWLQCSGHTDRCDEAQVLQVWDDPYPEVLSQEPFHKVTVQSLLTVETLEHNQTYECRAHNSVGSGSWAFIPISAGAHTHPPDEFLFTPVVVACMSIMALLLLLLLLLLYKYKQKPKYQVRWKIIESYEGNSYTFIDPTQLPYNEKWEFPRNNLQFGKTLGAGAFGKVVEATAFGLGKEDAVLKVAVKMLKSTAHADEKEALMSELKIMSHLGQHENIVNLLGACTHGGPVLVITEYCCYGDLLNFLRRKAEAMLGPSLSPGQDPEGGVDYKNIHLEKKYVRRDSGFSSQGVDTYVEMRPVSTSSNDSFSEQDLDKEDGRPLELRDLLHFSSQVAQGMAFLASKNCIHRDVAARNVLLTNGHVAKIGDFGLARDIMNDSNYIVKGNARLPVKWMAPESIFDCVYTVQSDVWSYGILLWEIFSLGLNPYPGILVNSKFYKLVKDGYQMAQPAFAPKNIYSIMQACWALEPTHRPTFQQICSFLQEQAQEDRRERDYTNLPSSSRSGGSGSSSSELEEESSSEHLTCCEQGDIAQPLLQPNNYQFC

For CN1CCC(n2cc(Nc3ncc4cccc(O[C@H]5CC[C@H](N)CC5)c4n3)cn2)CC1 [Compound C1], the IC50 (TNIK [1]) was 0.1 to 1 µM, the IC50 (PDK1 [2]) was 0.1 to 1 µM and the IC50 (GCK [3]) was 0.01 to 0.1 µM. For the same molecule, the IC50 (HPK1 [4]) was ≤ 0.01 µM, the “Death, Female mice” value ([5]; 225 mg/kg) was 0/5 and the “Death, Male mice” value ([5]; 225 mg/kg) was 0/5. For the same molecule, the “Death, Female mice” value ([5]; 337.5 mg/kg) was 0/5, the “Death, Male mice” value ([5]; 337.5 mg/kg) was 0/5 and the “Death, Female mice” value ([5]; 506.3 mg/kg) was 1/5. The “Death, Male mice” value ([5]; 506.3 mg/kg) was 2/5, the “Death, Female mice” value ([5]; 759.4 mg/kg) was 4/5 and the “Death, Male mice” value ([5]; 759.4 mg/kg) was 4/5. The “Death, Female mice” value ([5]; 1139.1 mg/kg) was 5/5, the “Death, Male mice” value ([5]; 1139.1 mg/kg) was 5/5 and the MTD ([5]; mouse, in vivo, po, mice, single dose) was 338 mg/kg. The “ALB/GLB, After treatment” value ([6]; Animal No. 1, before treatment 0.5) was 0.7, the “body weight (kg), After treatment” value ([6]; Animal No. 1, before treatment 1.5) was 2.15 kg and the “ALB/GLB, After treatment” value ([6]; Animal No. 2, before treatment 0.35) was 0.47. For the same molecule, the “Feline serum amyloid A (fSAA, mg/L), After treatment” value ([6]; Animal No. 2, before treatment 70.47) was 15.14 mg/L, the “body weight (kg), After treatment” value ([6]; Animal No. 2, before treatment 2.31) was 2.81 kg and the “ALB/GLB, After treatment” value ([6]; Animal No. 3, before treatment 0.4) was 0.5. The “Feline serum amyloid A (fSAA, mg/L), After treatment” value ([6]; Animal No. 3, before treatment 104.88) was 17.97 mg/L and the “body weight (kg), After treatment” value ([6]; Animal No. 3, before treatment 2.9) was 3.2 kg.

For Cn1cccc1-c1cc2cc(NC(=O)[C@@H]3C[C@@H]3F)ncc2c(N)c1F [DD02001A cis, (1S,2S)—N-(8-amino-7-fluoro-6-(1-methyl-1H-pyrrole-2-yl)isoquinolin-3-yl)-2-fluorocyclopropane-1-carboxamide], the IC50 (GCK [7]; ADP-Glo, read-out: Activity/IC50, nM GCK) was > 10 nM, the IC50 (HPK1 [8]; ADP-Glo, read-out: Activity/IC50, nM HPK1) was < 10 nM and the IC50 (PDK1 [9]; ADP-Glo, read-out: Activity/IC50, nM PDK1) was > 7000 nM. The IC50 (TNIK [10]; ADP-Glo, read-out: Activity/IC50, nM TNIK) was > 10 nM.

In the case of Cn1cccc1-c1cc2cc(NC(=O)[C@@H]3C[C@H]3F)ncc2c(N)c1F [DD02001A trans, (1S,2R)—N-(8-amino-7-fluoro-6-(1-methyl-1H-pyrrole-2-yl)isoquinolin-3-yl)-2-fluorocyclopropane-1-carboxamide], the inhibition at 10 µM (IGFIR) is reported as < 40%, the inhibition at 10 µM (ZAP70) is reported as < 40% and the inhibition at 10 µM (p38-alpha) is reported as < 40%. For the same molecule, the inhibition at 10 µM (LCK) was 87.6%, the inhibition at 10 µM (EGFR) was < 40% and the inhibition at 10 µM (CDK12) was < 40%. For the same molecule, the inhibition at 10 µM (ATR) was < 40%, the IC50 (GCK [7]) was > 10 nM and the inhibition at 10 µM (LYNB) was 82.9%. For the same molecule, the inhibition at 10 µM (AKT1) was < 40%, the inhibition at 10 µM (SYK) was 85.1% and the “maximum tolerated dosage by gavage” value [11] was 1000 to 1500 mg/kg. For the same molecule, the inhibition at 10 µM (PI3Kα) was 79.1%, the “inhibition rate ERK1.2” value (ERK1.2) was < 40% and the bioavailability [12] was 61.3%. The inhibition at 10 µM (JAK1) was 97.3%, the inhibition at 10 µM (CDK4) was < 40% and the inhibition at 10 µM (HER2) was < 40%. The inhibition at 10 µM (CDK7) was < 40%, the “inhibition rate MNK1/2” value (MNK1/2) was < 40% and the IC50 (HPK1 [8]) was < 10 nM. For the same molecule, the inhibition at 10 µM (ROS1) was < 40%, the IC50 (PDK1 [9]) was > 10000 nM and the inhibition at 10 µM (IKK-beta) was < 40%. The inhibition at 10 µM (CK1gamma1) was < 40%, the inhibition at 10 µM (CSF1R) was 102% and the IC50 (TNIK [10]) was > 10 nM.
